In US11254671B2, “Chemical compounds” (GLAXOSMITHKLINE INTELLECTUAL PROPERTY DEVELOPMENT LIMITED, priority 2017, dated 2022):

System: type I collagen deposition in primary lung fibroblasts
Test: Highthroughput type I collagen deposition (scar-in-a-jar) high content screening assay
Assay type: cell-based
Settings: Homo sapiens, Primary lung fibroblast, 72 h, human pulmonary fibroblasts, TGF-β 1 ng/ml, Ficoll crowding, mean of multiple experiments, read-out: mean pIC50, inhibition of type I collagen deposition (converted)
Experimental: Example 53 Highthroughput Type I Collagen Deposition (Scar-in-a-Jar) High Content Screening Assay
Highthroughput, cellular type I collagen deposition was measured by adapting a published method; scar-in-a-jar (Chen et al., 2009) to primary lung fibroblasts derived from human tissue and combining with high content analysis to permit fluorescent quantification of collagen deposited in the extracellular matrix (ECM). The human biological samples were sourced ethically and their research use was in accord with the terms of the informed consents
Test compounds were dissolved in 100% DMSO to give 10 mM (stocks) and further diluted to give half log dilutions to generate an 11 point concentration response curve. 1 ul was transferred to 384-well plates (Greiner Group, Kremsmunster, Austria, Catalogue No Greine 781280r).
Human pulmonary fibroblasts were maintained in DMEM media (Gibco, Catalogue No 21969) supplemented with 4 mM L-glutamine (Gibco Catalogue No 25030-024) and 10% heat inactivated FBS (Gibco, Catalogue No 10099-141) at 37° C. in 10% CO2. Cells were harvested and resuspended at 4×10^6 cells/ml in a T175 cell culture flask (BD Falcom, Catalogue No: 353112) containing 50 mL of culture media. After 4 days 37° C. in 10% CO2, cells were harvested and seeded at 4000 cells per well (50 μL/well) into 384-well plates (BD Falcon, Catalogue No 353962Greiner) in assay media (0.4% heat inactivated FBS, 4 mM L-glutamine). Plates were sealed with breathable seals (Sigma, Catalogue No. BEM-1). Assay plates were incubated for 72 h at 37° C. in 10% CO2.
Assay media was supplemented with 112.5 mg/ml Ficoll 70 (Sigma, Catalogue No F2878), 75 mg/ml Ficoll 400 (Sigma, Catalogue No F4375) and 50 μg/ml ascorbic acid (Sigma, Catalogue No A8960). 30 μL assay media were added to 1 μl compound (37 μM compound concentration in 1% DMSO). Diluted compounds (10 μL) were transferred to plates containing cells and incubated for 3 h at 37° C. in 10% CO2. Transforming growth factor (TGF)-β (R&D systems, Catalogue No 100-B/CF) was reconstituted to give 10 μg/mL (stock) and further diluted in assay media containing Ficoll and ascorbic acid (1 in 3333). TGF-β was added to cell plates (1 ng/ml final) and cells incubated for 72 h at 37° C. in 10% CO2.
Media was aspirated from cells and 30 μL/well 100% ice-cold methanol added and incubated at RT for 5 min to fix cells. Methanol was aspirated and cells washed with PBS (3×). To block and permeabilise, cells were incubated with PBS containing 1% BSA and 0.1% Triton X 100 for 20 min, followed by PBS wash (3×). Cells were incubated with mouse anti human type I collagen monoclonal antibody (Sigma, Catalogue No C2456) diluted 1:1000 in PBS for 24 h at 4° C. Cells were washed with PBS containing 0.1% Tween-20 (3×) and incubated with secondary alexa fluor 488 goat-anti-mouse antibody (Invitrogen, Catalogue No A11001, 1 in 500 in PBS) and Hoechst 33342 (Sigma, Catalogue No H21492), 1 in 1000 in PBS) for 1 h at RT, prior to washing with PBS containing 0.1% Tween (×4).
Type I collagen immunoreactivity was detected using the INCell 2000 Analyzer (GE Healthcare, INcell 2000) set to excitation and emission wavelengths for DAPI and FITC with laser focus and exposure adjusted to appropriate levels. Images were imported and analysed using Columbus software (Perkin Elmer) and computational algorithms to quantify “total collagen area” and “cell count”.
Data analysis was performed by determining % inhibition values for test compounds relative to the minimum (media only) and maximum responses (TGF-βstimulation) with non-linear regression analysis to determine IC50 values for test compounds.

| Compound | IC50 |
| --- | --- |
| CNCc1cc2nc(-c3cc(C4(S(C)(=O)=O)CCOCC4)cc(N4C5CCC4COC5)n3)ccc2[nH]1 [Example 40, ({5-[4-(4-methanesulfonyloxan-4-yl)-6-{3-oxa-8-azabicyclo[3.2.1]octan-8-yl}pyridin-2-yl]-1H-pyrrolo[3,2-b]pyridin-2-yl}methyl)(methyl)amine] | 39.8 to 1000 nM |
| CC[C@H]1COCCN1c1cc(CS(C)(=O)=O)cc(-c2ccc3[nH]c(CNC)cc3n2)n1 [Example 13, (S)-1-(5-(6-(3-ethylmorpholino)-4-((methylsulfonyl)methyl)pyridin-2-yl)-1H-pyrrolo[3,2-b]pyridin-2-yl)-N-methylmethanamine] | 39.8 to 1000 nM |
